We go through 2 compounds from publication PMC11468294, “Peptide Amphiphiles as Biodegradable Adjuvants for Efficient Retroviral Gene Delivery” (Advanced Healthcare Materials, 2023).

One data set has as its system CD4+ T cells. The class given is cell-based, Human. Conditions: 0.26, 1.3, 6.5 µM, 3 days; LIVE/DEAD Fixable Aqua stain. The method, then: γ‐Retroviral transduction Assay CD4+ T cells: Human CD4+ T cells were isolated from a Buffy coat using RosetteSep Human CD4+ Enrichment Cocktail ([…] Technologies) according to manufacturer's protocol. Isolated T cells were activated using Dynabeads Human T‐Activator CD3/CD28 (GibcoTM) according to manufacturer's protocol in presence of 10 ng mL^−1 IL‐2 (Miltenyi Biotec) for three days. After 3 days the magnetic Dynabeads were removed using a magnet and T cells were cultured in presence of 9 ng mL^−1 IL‐7 (Miltenyi Biotec) and 10 ng mL^−1 IL‐15 (Miltenyi Biotec). After 1 day 5 × 10^5 T cells were transduced with GALV‐γ‐RV in absence and presence of PA1, PA2, EF‐C (0.26, 1.3 and 6.5 µM) and Vectofusin−1 (10 µg mL^−1; Miltenyi Biotec), or RetroNectin (20 µg mL^−1; Takara Bio). […] After 3 days GFP+ T cells were analyzed by flow cytometry. Viability was determined using LIVE/DEAD Fixable Aqua Dead Cell Stain Kit (ThermoFisher Scientific) according to manufacturer's protocol. […]
Figure S7 Viability of CD4+ T cells. […] Dead cells were initially eliminated by gating on viability dye-negative cells (SSC-A vs. Fixable Aqua Fluorescence) and afterwards for singlets (FSC-H vs. FSC-A). GFP+ cells were measured using the FITC channel. […]

The test system of another data set is HeLa cells. Nature of the data set: Cell-PA interaction by confocal laser scanning microscopy. The class given is cell-based. Particulars: peptide 20 µg mL-1 added for 30 min, washed, Proteostat stain. The method, then: Confocal laser scanning microscopy and degradation study with PA1‐3 and HeLa cells: HeLa cells were seeded one day prior to conducting the assay (40000/well) in an 8‐well IBIDI slide. 4 µL of the preformed peptide fibrils (1 mg mL^−1) were diluted with 4 µL Proteostat (Enzo Life Science, 1 µL stock in 999 µL PBS) and incubated for 10 min and further diluted with medium to receive a final peptide concentration of 20 µg mL^−1. The nucleus of the HeLa cells was stained with Hoechst 33 342 (NucBlue, Thermo Fisher Scientific). The peptide solution was transferred to the HeLa cells and incubated for 30 min at 37°C before washing three times with PBS. The interaction of fibril clusters with cells was monitored after 30 min incubation time on a Stellaris 8 confocal laser scanning microscope (Leica) equipped with a 20x air objective and laser excitation wavelengths of 405 nm (Hoechst) and 561 nm (Proteostat). For the evaluation of aggregate degradation, the samples were further incubated at 37°C for 3 d and analyzed without any additional washing step. The evaluation of aggregate size and number was conducted by analyzing Proteostat stained aggregates via the 3D objects counter function of ImageJ 1.53f51 for 3 individual measurements (area 581.25 µm × 581.25 µm). […] The number of aggregates larger than 10 µm^2 were counted via the 3D objects counter function of ImageJ 1.53f51. The mean number and standard deviations were determined by averaging at least three technical triplicates.
Figure S6 Laser scanning microscopy micrographs of A cells only (control), and Proteostat-stained (red) peptides B EF-
C ([…]), C PA1, D PA2, E PA3, F P1, G P2, H P3 added to HeLa cells (nucleus in blue). The peptides (20 µg mL-
1) were added to cells for 30 min, washed and analyzed. […]

Where a SMILES comes first, the peptide text is derived from it. The star is where a group is joined. Palmitoyl = CCCCCCCCCCCCCCCC(=O)*

As to `CCCCCCCCCCCCCCCC(=O)N[C@@H](Cc1ccccc1)C(=O)N[C@@H](CCC(N)=O)C(=O)N[C@@H](Cc1ccccc1)C(=O)N[C@@H](CCCCN)C(=O)N[C@@H](Cc1ccccc1)C(=O)N[C@@H](CCCCN)C(=O)N[C@@H](CS)C(N)=O` [PA2] (Palmitoyl-FQFKFKC-NH2), in the data set with CD4+ T cells, the “viability of CD4+ T cells” value is “did not reduce the viability”. Moreover, the “association with cellular membranes” value in the data set on HeLa cells is on record as “association with cellular membranes”.
For the compound C16-VVVAAAKKK-NH2 [PA1], the “viability of CD4+ T cells” value in the data set with CD4+ T cells is recorded as “did not reduce the viability”. The “association with cellular membranes” value in the data set with HeLa cells was “association with cellular membranes”.
